In brackets after ≈: the same amount, converted by molar mass. Read-outs that look alike come from different tables or passages of the source. Numbered stars: 1 amine (or outer) side, 2 acyl side, 3 side chain; on linkers, the order of the positions; unused ones are H or OH. Square brackets hold non-standard residues; d marks the D form. Peptide text beside a SMILES is read from it. * marks the point of attachment. ξ: configuration not given here. X1 = NCC(O)CCC(N[*:1])C(=O)[*:2]; ΔZArg = N=C(N)NCC/C=C(\N)C(=O)O; ξDab(3-OH) = NCC(O)C(N)C(=O)O; Orn = NCCC[CH](N)C(=O)O; NH(CH2)4NH2 = NCCCCN*
Tests used:
[1] = test system: Staphylococcus epidermidis
Pseudomonas aeruginosa = details: for Antibacterial activity (MIC): unit not given in table (MICs in μg/mL)
Staphylococcus aureus = test: microbe, parasite or virus in culture; details: for Antibacterial activity (MIC): unit not given in table (MICs in μg/mL)
Description: (§1) The minimal inhibitory concentrations (MIC) were determined according to the Clinical and Laboratory Standards Institute (CLSI) conditions guidelines detailed in Table 7. Assays were performed in triplicate.
(§2) Preparation of Inocula. Five to 10 well-isolated colonies were picked and resuspended in 3 ml sterile saline. The inoculum was re-suspended by vigorous shaking on a vortex mixer for 15 s. Turbidity was adjusted to McFarland standard 0.5 ([…]). The inoculum was further diluted in the appropriate media (Table 7) to give a final inoculum in each well of ˜2-8×10^5 CFU/ml.
(§3) Addition of Test Article. Stock solutions of Odilomycin A or comparator were diluted in the appropriate media to give a maximum starting concentration of 50 μg/mL in the assay. 50 μL of medium was dispensed into each well in columns two to 12 of a 96 well plate. 100 μL of the appropriate test compound solution (100 μg/mL) was dispensed into each well in column one. In the case of M. catarrhalis, M. haemolytica and P. multocida these values were doubled (a final assay volume of 200 μL was used). […] Columns 11 and 12 served as positive (no drug or test article, inoculum added), and negative (no drug, test article, or inoculum added) growth controls respectively.
(§4) Addition of Bacterial Strains. 50 μL of each inoculum suspension was added to the appropriate wells, resulting in a final volume of 100 μL consisting of 50 μL diluted compound or diluents, and 50 μL of inoculum or broth alone.

Bacteroides fragilis = test: microbe, parasite or virus in culture
Description: as §1, §2, §3, §4

Cytotoxicity test (MTS) = format: cell-based; details: human; for CC50 at 72 h: MTS; for viability at 72 h: dose of up to 100 μg/mL, read-out: cell viability
Description: The cytotoxicity of the Odilomycins A-C was investigated against Human colon adenocarcinoma (HT29) cells and Human normal lung fibroblasts (MRC-5) cells. 200 μL of the cell suspension of HT29 (human colorectal adenocarcinoma) prepared in RPMI 1640+1% L-Glutamine supplemented with 10% (v/v) fetal calf serum and 200 μL of the cell suspension of MRC5 (human lung fibroblast) prepared in Dulbecco's modified Eagle's medium supplemented with 25 mM glucose and 10% (v/v) fetal calf serum were inoculated into 96-well plates.
The inoculating cell number was 800 cells per well for HT29 and 2100 cells per well for MRC-5. The microplates were incubated at 37° C. for 24 h with 5% of CO2.
Twenty four hours later, Odilomycin A, B or C dissolved in water were added for 72 h at a final concentration from 0.78 μg/mL to 100 μg/mL in a fixed volume of water (1% final concentration). […] Experiments were done in triplicate.

K. pneumoniae ATCC 43816 = format: cell-based, Klebsiella pneumoniae; details: ATCC 43816
From the text: Vancomycin, rifampicin, kanamycin, gentamicin, ampicillin, ciprofloxacin and tetracycline (Sigma-Aldrich) were provided as standard powders by the manufacturers.

P. aeruginosa ATCC 27853 = test: Acute lethal infection in mice; format: in vivo, BALB/c mice; details: mice, P. aeruginosa 8.6 log10 CFU/mouse IP, n=6
Description: Female BALB/c mice ordered from Harlan Laboratories (Indianapolis, Ind.) weighing 19-21 g were used in experiments of acute lethal infection. Mice were fully immunocompetent. Infection was induced by inoculating intraperitoneally in mice a bacterial suspension of P. aeruginosa ATCC 27853. The bacterial challenges (8.6 log10 CFU/mouse) were given suspended in 0.1 mL sterile saline. Treatments were administered once 1 hour after challenge via IV injection (Tobramycin was administered via IP injection immediately after challenge) (Table 13). Mortality was tracked out to 2 days post challenge. Animals that remained surviving at the end of the study were humanely euthanized.

[2] = HT29 colon adenocarcinoma cells
[3] = MRC-5 normal lung fibroblasts, MRC-5 cells
[4] = Odilomycin A 7.5 mg/kg IV at 1 hr
[5] = Odilomycin A 15 mg/kg IV at 1 hr

N=C(N)NCC/C=C(\NC(=O)C(CCC(O)CN)NC(=O)C(Cc1cnc[nH]1)NC(=O)C1CCCN1C(=O)C(CCCN)NC(=O)CNC(=O)C(NC(=O)C(NC(=O)C(N)CCCCN)C(O)CN)C(O)CN)C(=O)NC(CCC(O)CN)C(=O)NCCCCN (stereo not drawn) [Odilomycin A, Lys-(3-hydroxy-2,4-diaminobutanoic acid)-(3-hydroxy-2,4-diaminobutanoic acid)-Gly-Ornithine-Pro-His-(5-hydroxylysine)-(2,3-dehydroarginine)-(5-hydroxylysine)-(1,4-diaminobutane)] (H-K[ξDab(3-OH)][ξDab(3-OH)]G[Orn]PH[X1][ΔZArg][X1]-{NH(CH2)4NH2}; configuration not given here)
MIC (Pasteurella multocida): 25.0 µg/mL (≈ 19.3 µM)
MICs (Escherichia coli): < 10 µg/mL
MIC (Escherichia coli; E. coli CTX-M14 clinical isolate AEC7): 3.13 µg/mL (≈ 2.41 µM)
MIC (Escherichia coli; E. coli CTX-M15 clinical isolate MEC23): 3.13 µg/mL (≈ 2.41 µM)
MIC [1]: <0.20 µg/mL
MICs [1]: < 1 µg/mL
MIC (Mannheimia haemolytica): 50.0 µg/mL (≈ 38.6 µM)
MIC (Pseudomonas aeruginosa): 3.12 µg/mL (≈ 2.41 µM)
MICs (Pseudomonas aeruginosa): < 10 µg/mL
MIC (Pseudomonas aeruginosa; P. aeruginosa ATCC 27853): 3.13 µg/mL (≈ 2.41 µM)
Antibacterial activity (MIC) (Pseudomonas aeruginosa; P. aeruginosa multiresistant clinical isolate 5618): 6.25
Antibacterial activity (MIC) (Pseudomonas aeruginosa; P. aeruginosa multiresistant clinical isolate 35170): >50
Antibacterial activity (MIC) (Pseudomonas aeruginosa; P. aeruginosa multiresistant clinical isolate 42162): 25
Antibacterial activity (MIC) (Pseudomonas aeruginosa; P. aeruginosa multiresistant clinical isolate 401681): 25
Antibacterial activity (MIC) (Pseudomonas aeruginosa; P. aeruginosa multiresistant clinical isolate 512232): 3.12
MIC (Enterococcus faecalis): >50.0 µg/mL
antibacterial activity (Enterococcus faecalis; E. faecalis): Weak or no antibacterial activity
MICs (Staphylococcus aureus): < 1 µg/mL
Antibacterial activity (MIC) (Staphylococcus aureus; S. aureus multiresistant clinical isolate 16666): <0.19
Antibacterial activity (MIC) (Staphylococcus aureus; S. aureus multiresistant clinical isolate 20364): 0.78
Antibacterial activity (MIC) (Staphylococcus aureus; S. aureus multiresistant clinical isolate 20681): 1.56
Antibacterial activity (MIC) (Staphylococcus aureus; S. aureus multiresistant clinical isolate 21840): 0.39
Antibacterial activity (MIC) (Staphylococcus aureus; S. aureus multiresistant clinical isolate 23305): 0.78
MIC (Bacteroides fragilis): 1.56 µg/mL (≈ 1.2 µM)
CC50 at 72 h (Cytotoxicity test (MTS); [2]): > 100 µg/mL
viability at 72 h (Cytotoxicity test (MTS); [2]): 100%
CC50 at 72 h (Cytotoxicity test (MTS); [3]): > 100 µg/mL
viability at 72 h (Cytotoxicity test (MTS); [3]): 100%
MIC antibiotic alone (K. pneumoniae ATCC 43816): 25 µg/mL (≈ 19.3 µM)
Animal deaths Day 0 (P. aeruginosa ATCC 27853; [4]): 0
Animal deaths Day 1 (P. aeruginosa ATCC 27853; [4]): 4
Animal deaths Day 2 (P. aeruginosa ATCC 27853; [4]): 1
Animal deaths Day 0 (P. aeruginosa ATCC 27853; [5]): 0
Animal deaths Day 2 (P. aeruginosa ATCC 27853; [5]): 4

Source: patent publication US9260481B2, “Peptide derivatives as antibiotics” (priority 2011, dated 2016)
